Results published in patent US6780853B1, “Neuroactive steroids of the androstane and pregnane series” (priority 1995, dated 2004).
Where a name gives a salt, the structure may show the parent alone.

What was measured:
[1] = biological target: GABA receptor complex (GRC); assay: [35S]TBPS binding in rat cerebral cortex P2 homogenate; settings: for IC50: concentration to inhibit 50% of control [35S]TBPS binding, 2 nM [35S]TBPS; for IMAX (maximum inhibition): maximum inhibition of [35S]TBPS binding
Description: To those skilled in the art, it is known that the modulation of [^35S]t-butylbicyclophosphorothionate ([^35S]TBPS) binding is a measure of the potency and efficacy of drugs acting at the GRC, which drugs may be of potential therapeutic value in the treatment of stress, anxiety, and seizure disorders (Squires, R. F., et al., Mol, Pharmacol., 23:326 (1983); Lawrence, L. J., et al., Biochem. Biophys. Res. Comm., 123:1130-1137 (1984); Wood, et al., Pharmacol, Exp. Ther., 231:572-576 (1984)). Several experiments were performed previously to determine the nature of the modulation of [^35S]TBPS as affected by neuroactive steroids. […] Furthermore, these compounds have high potency and efficacy at the GRC, with stringent structural requirements for such activity.
The procedures for performing this assay are fully discussed in: (1) Gee, K. W. et al., European Journal of Pharmacology, 136:419-423 (1987)); and (2) Gee, et al., Molecular Pharmacology 30:218 (1986). These procedures were performed as follows:
Brains from male Sprague-Dawley rats were removed immediately following sacrifice and the cerebral cortices dissected over ice. A P2 homogenate was prepared as previously described (Gee, et al., Molecular Pharmacology 30:218 (1986)). Briefly, the cortices were gently homogenized in 032 M sucrose followed by centrifugation at 1000×g for 10 minutes. The supernatant was collected and centrifuged at 9000×g for 20 minutes. The resultant P2 pellet was suspended as a 10% (original wet weight/volume) suspension in 50 mM Na/K phosphate buffer (pH 7.4) 200 mM NaCl to form the homogenate.
One hundred microliter […] aliquots of the P2 homogenate (0.5 milligrams (mg) protein) were incubated with 2 nanomolar (nM) [^35S]TBPS (70-110 curies/millimole; New England Nuclear, Boston, Mass.) in the presence or absence of the naturally occurring steroids or their synthetic derivatives to be tested. The tested compounds were dissolved in dimethylsulfoxide (Baker Chem. Co., Phillipsburg, N.J.) and added to the incubation mixture in 5 μL aliquots. The incubation mixture was brought to a final volume of 1 mL with buffer. Non-specific binding was defined as binding in the presence of […]. The effect and specificity of GABA (Sigma Chem. Co., St. Louis, Mo.) was evaluated by performing all assays in the presence of GABA plus (+)bicuculline (Sigma Chem. Co.). Incubations maintained at 25° C. for 90 minutes (steady state conditions) were terminated by rapid filtration through glass fiber filters (No. 32, Schleicher and Schuell, Keene, N.H.). Filter-bound radioactivity was quantitated by liquid scintillation spectrophotometry. Kinetic data and compound/[^35S]TBPS dose-response curves were analyzed by nonlinear regression using a computerized iterative procedure to obtain rate constants and IC50 (concentration of compound at which half-maximal inhibition of basal [^35S]TBPS binding occurs) values.
Various compounds were screened to determine their potential as modulators of [^35S]TBPS binding in vitro. These assays were performed in accordance with the above discussed procedures. Based on these assays, we have established the structure-activity requirements for their specific interaction at the GRC and their rank order potency and efficacy. Experimental data obtained in this assay for a number of 3α-hydroxypregnan-20-one derivatives is discussed in Gee, K. W. et al., European Journal of Pharmacology, 136:419-423 (1987) and in U.S. Pat. No. 5,232,917. Table 1 provides IC50 and maximum inhibition (IMAX) measurements for numerous compounds, including examples of compounds disclosed and claimed herein. IC50 is defined as concentration of compounds to inhibit 50% of control [^35S]TBPS binding. It is an indication of a compound's in vitro potency. Maximum inhibition is an indication of a compound's in vitro efficacy.

[2] = tested on: metrazol induced convulsions; assay: Antimetrazol activity in mice; type: in vivo; settings: IP
Method: Experiments were also performed to determine the physiological relevance of neuroactive steroid and GABA receptor interactions by assessing the ability of compounds of the present invention to prevent metrazol induced convulsions in mice. Mice were injected with various doses of the test compounds of the invention, 10 minutes prior to the injection of metrazol. The time to onset of myoclonus (presence of forelimb clonic activity) induced by metrazol was determined by observing each mouse for a period of 30 minutes. In control mice, metrazol (85 mg/kg) will induce convulsion in 95% of the animals.
The anticonvulsant tests are similar to that described above.

[3] = tested on: time spent on the open-arms; assay: Elevated plus-maze test; type: in vivo, N.I.H. Swiss-Webster mice
Description: The theoretical basis for the elevated plus-maze test is similar to that of the fight/dark transition test. As it was described previously by Pellow et al. J. Neurosci. Meth. 14:149-167 (1985)), the elevated plus-maze apparatus is designed to utilize the mice's natural aversion to open spaces. The apparatus consists of two open-arms and two enclosed-arms. The elevated plus-maze test allows for two measures of anxiety, the number of entries into the open-arms and the time spent on the open-arms, both expressed as a percentage of the total number of entries and time spent in/on both the open-arms and enclosed-arms.
Male N.I.H Swiss-Webster mice (Harlan, Indianapolis, Ind.) weighing 15-20 g were housed four per cage in polyethylene cages with sawdust bedding. The colony room was environmentally controlled (22° C.) with a 12 hr light/dark cycle (0600-1800 hr). Food and water were available ad libitum, except during testing. The experiments were run from 0700-1500 hr and groups were counterbalanced for time of day effects. Mice were only administered drug or vehicle once.
The method used was previously described (Lister, Psychopharmacol. 92:180-185 (1987)). The apparatus included two open arms perpendicular to two enclosed arms elevated 50 cm from the floor. Each arm was 50 cm long and the walls of the enclosed arms were 40 cm tall. The maze was made completely of black plexiglass. Incandescent 200 W light bulbs were above each of the open arms to produce a strong contrast between the open arms and the enclosed arms.
[…] Swiss-Webster mice were placed in the center of the plus-maze facing an open arm. During the 5 min test period, the number of entries onto the open arms and the enclosed arms, and the time spent in the open arms and enclosed arms were measured. All four paws had to be within an arm for the dependent variable to be measured. Therefore, the time spent in the center of the maze is not counted, so the total time spent in the open arms and the enclosed arms may not equal 5 min.

Progesterone Receptors = assay: Inhibition of 3H-Progesterone Binding to the Bovine Uteral Progesterone Receptors; settings: competitor 10^−6M; 3H-progesterone 0.15 nM
[4] = 50% hpbcd, 10 mg/kg, 10 min before metrazol 85 mg/kg

Structure (SMILES) | IC50 [1] [nM] | IMAX (maximum inhibition) [1] [%] | % Protected [2, 4] [%] | Plus-Maze (% Control), time spent on the open-arms ([3]; IP, 50% hpbcd, 10 mg/kg) [% Control] | melting point [°C] | also measured
C[C@]12CC[C@@H](O)C[C@H]1CC[C@@H]1[C@@H]2CC[C@]2(C)[C@@H](C(=O)CSc3ccccn3)CC[C@@H]12 [3α-Hydroxy-21-(pyrid-2-ylthio)-5β-pregnan-20-one] | 90 | 66 |  |  |  | % Protected ([2]; 50% hpbcd, 20 mg/kg): 12.5%; Plus-Maze (% Control), time spent on the open-arms ([3]; IP, 50% hpbcd, 20 mg/kg): 187 % Control
CCC(=O)[C@@]1(C)CC[C@H]2[C@@H]3CCC4=CC(=O)CCC4=C3CC[C@@]21C [Example R5020] |  |  |  |  |  | % of Inhibition (Progesterone Receptors): 100%
C#CC1(O)CCC2(C)C(CCC3C2CCC2(C)C(C(=O)CSCCS(=O)(=O)O)CCC32)C1 (stereo not drawn) [3β-ethynyl-3α-hydroxy-21-thioethanesulfonate-5β-pregnan-20-one sodium salt] | 607 | 93 | 0 | 127 |  | 
CC12CCC(O)CC1CCC1C2CCC2(C)C(C(=O)CSc3ncc[nH]3)CCC12 (stereo not drawn) [3α-Hydroxy-21-(imidazo-2-ylthio)-5β-pregnan-20-one] | 184 | 80 | 6.25 | 166 |  | 
CO[C@H]1CC[C@H]2[C@@H]3CC[C@@H]4C[C@H](OC(=O)C(C)C)CC[C@]4(C)[C@H]3CC[C@]12C |  |  |  |  | 82 to 87 | 
C[C@]12CC[C@@H](O)C[C@H]1CC[C@@H]1[C@@H]2CC[C@]2(C)[C@@H](C(=O)CSc3ccncc3)CC[C@@H]12 [3α-hydroxy-21-(pyrid-4-ylthio)-5β-pregnan-20-one] | 59 | 74 | 75 | 151 |  | 
C[C@]12CC[C@@H](O)C[C@@H]1CC[C@@H]1[C@@H]2CC[C@]2(C)[C@@H](C(=O)CSc3ccncc3)CC[C@@H]12 [3α-hydroxy-21-(pyrid-4-ylthio)-5α-pregnan-20-one] | 23 | 98 | 62.5 | 148 | 154 to 156 | 
CC(=O)[C@H]1CC[C@H]2[C@@H]3CC[C@@H]4C[C@H](O)CC[C@]4(C)[C@H]3CC[C@]12C [5β-pregnan-3α-of-20-one, 5β-pregnan-3α-ol-20 -one] |  |  |  |  |  | % of Inhibition (Progesterone Receptors): 9%
COC1CCC2C3CCC4CC(O)(C#CCCOC(=O)CCC(=O)O)CCC4(C)C3CCC12C (stereo not drawn) [3β-(4′-hydroxy-1′-butynyl)-3α-hydroxy-17β-methoxy-5β-androstane 4′-hemisuccinate sodium salt] | 108 | 100 |  |  |  | % Protected ([2]; water, 10 mg/kg): 75%; Plus-Maze (% Control), time spent on the open-arms ([3]; PO, water, 10 mg/kg): 309 % Control
CC(=O)c1ccc(C#CCO[C@H]2CC[C@H]3[C@@H]4CC[C@H]5C[C@](C)(O)CC[C@]5(C)[C@H]4CC[C@]23C)cc1 [17β-[3-(4-Acetylphenyl)-2-propynyloxy]-3α-hydroxy-3β-methyl-5α-androstane] | 316 | 95 |  |  | 52 to 55 | 
C[C@]12CC[C@@H](O)C[C@H]1CC[C@@H]1[C@@H]2CC[C@]2(C)[C@@H](C(=O)CSCCO)CC[C@@H]12 [3α-hydroxy-21-hydroxyethylthio-5β-pregnan-20-one] | 141 | 71 | 12.5 |  | 150 to 152 | 
C[C@]12CC[C@@H](O)C[C@H]1CC[C@@H]1[C@@H]2CC[C@]2(C)[C@@H](C(=O)COc3cccnc3)CC[C@@H]12 [3α-hydroxy-21-(pyrid-3-yl)oxy-5β-pregnan-20-one] | 76 | 76 |  |  | 63 to 66 | 
C[C@]12CC[C@@H](O)C[C@H]1CC[C@@H]1[C@@H]2CC[C@]2(C)[C@@H](C(=O)C[S+]([O-])c3ccncc3)CC[C@@H]12 (stereo partly drawn) [3α-Hydroxy-21-(pyrid-4-ylsulfinyl)-5β-pregnan-20-one] | 235 | 73 | 25 | 171 |  | 
COCC1(O)CCC2(C)C(CCC3C2CCC2(C)C(C(=O)CSc4ccc(N)cc4)CCC32)C1 (stereo not drawn) [21-(4′-aminophenylthio)-3α-hydroxy-3β-methoxymethyl-5α-pregnan-20-one] | 127 | 89 |  |  | 150 to 156 | 
COC1CCC2C3CCC4CC(O)(C#Cc5ccc(C(C)=O)cc5)CCC4(C)C3CCC12C (stereo not drawn) [3β-(4′-acetylphenylethynyl)-3α-hydroxy-17β-methoxy-5β-androstane] | 20 | 104 | 25 | 129 | 189 to 191 | 
C[C@@]1(O)CC[C@@]2(C)[C@@H](CC[C@@H]3[C@@H]2CC[C@]2(C)[C@@H](C(=O)COc4ccc([N+](=O)[O-])cc4)CC[C@@H]32)C1 |  |  |  |  | 169 to 172 | 
C[C@]12CC[C@@H](O)C[C@@H]1CC[C@@H]1[C@@H]2CC[C@]2(C)[C@@H](OCCO)CC[C@@H]12 [17β-(2-Hydroxyethoxy)-3α-hydroxy-5α-androstane] | 534 | 99 |  |  | 181 to 183 | 
C=C[C@@]1(O)CC[C@@]2(C)[C@@H](CC[C@@H]3[C@@H]2CC[C@]2(C)[C@@H](OC)CC[C@@H]32)C1 [3β-Ethenyl-3α-hydroxy-17β-methoxy-5α-androstane] | 133 | 104 |  | 127 |  | 
